Values joined by “and” are separate entries in the source; they are usually repeats but may differ in a detail not shown here. Equal entries are not always repeated. Where two headings read alike, the source gives them in different places.
Columns and labels:
[1] = tested on: EBV genome copy number in the Raji Burkitt lymphoma cell line; experiment: Raji EBV genome copy number assay; assay type: cell-based, Epstein-Barr virus; conditions: six days, Raji cells, real time PCR EBV DNA (DS) relative to actin
Procedure: To further evaluate the ability of these compounds to inhibit the EBNA1 function required for EBV genome replication, we assayed their effect on EBV genome copy number in the Raji Burkitt lymphoma cell line (Fig. 5). Raji cells typically contain ∼100 copies of the EBV genome per cell. […] Therefore, we assessed the effects of HU, SC7, SC11, and SC19 on EBV copy number in Raji cells. Cells were treated with 10 µM SC7, SC11, SC19 or with 100 µM HU for six days. The EBV genome copy number was determined by real time PCR for EBV DNA (DS) relative to cellular actin DNA.
Raji cells (purchased from ATCC) were grown at 5×10^6 cells/ml in RPMI media supplemented with 10% FBS and 10 mM Streptomycin and 10 mm Penicillin. Test compounds were added to achieve a final concentration of 10 uM. Cells were grown at 37°C for three days and then passaged 1∶10 into fresh media with the same concentration of drug. After a second 3-day incubation cells were harvested and the DNA was isolated using ChIP Lysis Buffer followed by sonication, phenol∶chloroform extraction, and ethanol precipitation. Relative EBV DNA copy number was quantified by real-time PCR with primers for cellular actin and the EBV dyad-symmetry region, as described previously.

Zta [2] = biological target: T1, Zta (Epstein-Barr virus, UniProt P03206); experiment: Fluorescence polarization (FP) assay of Zta-DNA binding (specificity control); conditions: for IC50: inhibitor 833 to 7 µM, 2-fold dilutions, 300 nM Zta, read-out: IC50, inhibition of Zta-DNA binding (FP, Fig. 3 panel B)
T1 construct: 300 nM ZTA full length purified recombinant protein; Hexa-His; made in house; host or cells: E. coli
T1 sequence (P03206 whole entry): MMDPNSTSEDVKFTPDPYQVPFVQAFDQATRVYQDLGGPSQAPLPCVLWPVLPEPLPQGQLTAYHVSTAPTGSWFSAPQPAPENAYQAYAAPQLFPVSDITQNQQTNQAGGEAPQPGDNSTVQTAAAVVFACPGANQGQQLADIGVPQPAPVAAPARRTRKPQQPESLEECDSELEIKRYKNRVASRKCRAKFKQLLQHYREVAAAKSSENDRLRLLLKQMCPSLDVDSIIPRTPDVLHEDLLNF
Procedure: (§1) The EBNA1 DNA binding domain (DBD) (aa 454–607) with a hexa-histidine amino-terminal fusion protein was expressed in E. coli and purified over Ni-NTA agarose according to manufacturers recommendations (Qiagen). The protein was purified from four liters of E. coli to generate ∼20 mg of highly purified EBNA1 protein, estimated to be >90% pure. Purified protein was then dialyzed into a buffer consisting of 200 mM NaCl, 20 mM, Tris-HCl pH 7.4 and 20% Glycerol. Hexa-His tagged Zta was purified from E. coli to near homogeneity, similar to EBNA1 protein. Purified Zta was dialyzed into 500 mM NaCl, Tris-HCl pH 7.4 and 20% Glycerol.
(§2) A reaction mix containing 200 mM NaCl, 20 mM Tris-Cl pH 7.4, 1 mM DTT, 10 ug/mL BSA, 10 nM Cy5 5′ modified EBNA1 (Cy5-GGGTAGCATATGCTATCTagatagcatatgctaccc) or ZTA (Cy5-CACTGACTCATTaatgagtcagtg binding site) oligonucleotide hairpins (purchased from IDT) and 246 nM EBNA1 DBD (aa 459–607) or 300 nM ZTA full length purified recombinant protein was incubated for 20 minutes at room temperature prior to dispensing (BioTek MicroFlo Select) 30 uL to each well of a 384 well black opaque microtiter plate containing the test compounds. Test plates were centrifuged at 165×g prior to fluoresence polarizaration measurements in an Envision Xciter multilable plate reader (Perkin Elmer) using a Cy5 FP 620 excitation and Cy5 FP P/S-pol 688 emission filters.
(§3) To determine IC50s, an 11- point series of 2-fold dilutions in DMSO was performed in duplicate starting at an initial concentration of 50 mM using a Janus Verispan (Perkin Elmer) to create a master plate. From this master plate 0.5 uL was transfered to black opaque 384 well Optiplate (Perkin Elmer) using a Janus MDT (Perkin Elmer) or to microfuge tubes by hand. The plate or microfuge tubes were assayed using the FP and EMSA protocols described above. […] The data was calculated as percentage of EBNA1 binding activity and then plotted versus the log of the concentration of inhibitor. Using GraphPad Prism 5.0 software the plotted data was fit with a Hill-Slope dose-response curve to calculate the relative IC50.

[3] = tested on: Zta transactivation of BHLF1 promoter; experiment: Zta transcription activation assay (BHLF1-Luciferase reporter) in HEK293T cells; assay type: cell-based, Epstein-Barr virus; conditions: for inhibition at 5 µM: human gammaherpesvirus 4, HEK-293T, 48 h, read-out: Inhibition of Zta transactivation
Procedure: (§4) SC7, SC11, and SC19 were assayed for their ability to inhibit EBNA1 in two cell-based assays. Transcription activation of the EBV Cp promoter by EBNA1 is known to be essential for B-cell immortalization. We therefore assayed the effect of compounds to inhibit EBNA1 transcription activation of Cp using a luciferase reporter-based assay in transiently transfected HEK293T cells (Fig. 4). The luciferase reporter plasmid consisted of a ∼2 kb region of EBV containing both OriP and Cp fused upstream of the luciferase gene. Cotransfection of this plasmid with an EBNA1 expression plasmid produced a 4–5 fold increase in luciferase activity relative to control expression vector lacking EBNA1 (data not shown). Incubation of transfected cells with control vehicle DMSO had no effect on EBNA1 transcription activation. […] As a control for specificity, the same compounds were assayed for their inhibition of Zta transcription activation. Zta is a potent transcription activator of the EBV BHLF1 promoter. We therefore assayed these compounds for their effect on Zta transactivation of BHLF1 promoter fused to luciferase reporter gene.
(§5) HEK293T cells (purchased from ATCC) were seeded in 24-well plates at a density of 50,000 cells/well in DMEM media with 10% FBS. Following an 18 hr incubation at 37°C, cells were transfected using 2 µl of lipofectamine with 0.4 ug/well of a pCMV-FLAG-EBNA1, pCMV-FLAG-ZTA (N362) or a control pCMV-FLAG vector and 0.2 ug/well of either a Cp-Luciferase (EBNA1-reporter) or a HP-Luciferase (Zta-reporter) plasmid. All samples were cotransfected with 100 ng of Renilla expression vector as an internal control for transfection efficiency. After 6 hrs the transfection media was replaced and test compounds were added to achieve a final concentration of 5 uM. Cells were incubated at 37°C for 48 hrs and then harvested. Cells were lysed and prepared for analysis using the Promega Dual Reporter system and luminescence was measured using a Perkin Elmer Wallac Victor^2 1420 Multilabel reader.

Zta [4] = biological target: T1, Zta; experiment: EMSA of Zta-DNA binding (specificity control)
Procedure: (§6) An EMSA reaction buffer was prepared containing 20% Glycerol, 200 mM NaCl, 20 mM Tris-Cl pH 7.4, 1 mM DTT, 10 ug/mL BSA, 10 nM Cy5 oligonucleotide probe and with or without 246 nM EBNA1 DBD or 300 nM Zta full length purified recombinant protein. This solution was incubated for 20 minutes at room temperature to ensure binding. 30 uL of this solution was dispensed to eppendorf tubes containing 0.5 uL of a test compound in DMSO and mixed. Samples were then loaded onto a 6% polyacrylamide gel in 1/2X Tris-Borate buffer and electrophoresed for 90 min at 170 V. The gel was then scanned for flouresence using at Typhoon Imager (GE Healthcare).
as §3

[5] = tested on: EBNA1 transcription activation of Cp; experiment: EBNA1 transcription activation assay (OriP-Cp-Luciferase reporter) in HEK293T cells; assay type: cell-based, Epstein-Barr virus; conditions: 5 µM compound, 48 hrs, transfected HEK293T cells
Procedure: as §4, §5

[6] = biological target: T2, EBNA1 DNA binding domain (DBD) (Epstein-Barr virus, UniProt P03211); experiment: Fluorescence polarization (FP) assay of EBNA1-DNA binding
T2 construct: 246 nM EBNA1 DBD (aa 459–607); hexa-histidine (N); made in house; host or cells: E. coli
T2 sequence (P03211 459-607): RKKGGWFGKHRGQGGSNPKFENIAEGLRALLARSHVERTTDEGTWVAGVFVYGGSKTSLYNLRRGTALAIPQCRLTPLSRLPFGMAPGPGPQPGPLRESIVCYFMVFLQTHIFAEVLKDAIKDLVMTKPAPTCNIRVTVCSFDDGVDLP
Procedure: as §1, §2, §3

[7] = biological target: T2, EBNA1 DNA binding domain (DBD); experiment: EMSA of EBNA1-DNA binding; conditions: Fig. 3
Procedure: as §6, §3

[8] = inhibitor 833 to 7 µM, 2-fold dilutions, 246 nM EBNA1 DBD, read-out: IC50, inhibition of EBNA1-DNA binding (FP, Fig. 3 panel A)
[9] = purified EBNA1 DBD, Cy5 DNA hairpin, read-out: IC50, inhibition of EBNA1-DNA binding in FP assay

| Compound | Reduction in EBV genome copy number ([1]; 100 µM HU) [%] | Inhibition of Zta-DNA binding in FP assay (Zta [2]) | IC50 (Zta [2]) [µM] | inhibition at 5 µM [3] [%] | Inhibition of Zta-DNA binding in EMSA (Zta [4]) | Reduction in EBV genome copy number ([1]; 10 µM compound) | Inhibition of EBNA1 transcription activation [5] | IC50 [6, 8] [µM] | IC50 [6, 9] | Inhibition of Zta transactivation ([3]; 5 µM compound, 48 hrs, transfected HEK293T cells) | Inhibition of EBNA1-DNA binding in EMSA [7] | IC50, inhibition of EBNA1-DNA binding in FP assay ([6]; purified EBNA1 DBD, Cy5 DNA hairpin) |
| --- | --- | --- | --- | --- | --- | --- | --- | --- | --- | --- | --- | --- |
| NC(=O)NO [HU, hydroxyurea, reference compound] | ~50 |  |  |  |  |  |  |  |  |  |  |  |
| CC(=O)Oc1ccc(N(C(C)=O)S(=O)(=O)c2ccc3ccccc3c2)cc1Br [SC7] |  | no significant inhibition | 300 | ~60 | no significant inhibition | no apparent effect | completely blocked | 23.7 | 20 to 100 µM and 23 µM |  |  |  |
| CC(=O)Nc1ccc(S(=O)(=O)N2c3ccccc3C(C)=CC2(C)C)cc1 [SC11] |  | no significant inhibition | 406 | ~60 | no significant inhibition | 75–90% | completely blocked | 92.2 | 20 to 100 µM |  |  |  |
| N#CCc1ccc(NC(=O)c2cc(Cl)ccc2NS(=O)(=O)c2cccc3nsnc23)cc1 [SC19] |  | no significant inhibition | ~211 |  | no significant inhibition | 75–90% | completely blocked | 49.1 | 20 to 100 µM and 49 µM | no detectable inhibitory effect |  |  |
| CC1CCc2c(sc3nc(SCc4ccc5c(c4)OCO5)nc(N)c23)C1 (centres unmarked) [SC27] |  |  | 193 |  |  |  |  | 546 |  |  | highly specific inhibition of EBNA1 | did not perform well in the FP assay |
